Test results as given in patent US20080311126A1, “Antisense Oligonucleotides Directed to Ribonucleotide Reducatase R2 and Uses Thereof in Combination Therapies for the Treatment of Cancer” (Genesense Technologies, Inc, priority 2004, published 2008).
Oligonucleotides are written 5' to 3', each unit as a sugar letter and its base; * is a phosphorothioate linkage, no mark a phosphodiester; rarer units and linkages stand in square brackets, end groups in braces. Plain capitals give the bases only. d = 2'-deoxy (DNA)

Legend:
Type in all cases: cell-based, human
[1] = system: Hela S3 cells; experiment: Relative colony forming efficiency, lipofectin +/- oligonucleotide 4 hours; conditions: Hela S3 cervix carcinoma cells; averages of 2-8 determinations
Experimental: Colony forming efficiency was determined using standard protocols. Briefly, the cells were cultured for 24 hours at 37° C. in growth medium with 10% fetal bovine serum. The cells were washed in 5 ml phosphate buffered saline, pH 7.2, once prior to lipofectin +/−oligonucleotide treatment.
The test oligonucleotides were added to cell cultures in the presence of 2.5 μg of DOTMA/DOPE (Lipofectin; Life Technologies, Inc.) for four hours. The oligonucleotide was tested at 0.2 μM unless otherwise indicated. Controls were the cultures treated with lipofectin but without the oligonucleotide. After 4 hours the medium containing the oligonucleotide was removed and washed with 5 ml of growth medium. The cells were then cultured in growth medium containing 10% fetal bovine serum for seven to ten days. Surviving cells were visualized by methylene blue staining, and colonies were scored. In some experiments cell aliquots were removed from the culture and viability was determined using the trypan blue exclusion test. Results were analyzed as percent of surviving cells compared to control cells.
AS-II-336-20 was tested for the ability to inhibit the proliferation of human tumour cells (Hela). Hela S3 cells (American Type Culture Collection, Rockville, Md., ATCC), and a Hela cell line (Hela 1 mM) previously selected for resistance to the antitumour agent, hydroxyurea, were tested (see results in Table 11). Two experiments were undertaken with Hela S3 cells. […] The same experiment was repeated with the Hela 1 mM cell line and with varying concentrations of the antisense construct AS-II-336-20 (see results in Table 11) with similar results, […] was an effective concentration for inhibiting colony formation.
To test the antisense effects of many of these sequences as phosphorthioate deoxyribonucleotides, they were examined in relative colony forming experiments conducted as described in Example 16 with a series of human tumour cell lines. The results (shown as % inhibition of colony forming ability) obtained with cancer cells derived from the bladder, breast, lung, colon, pancreas, prostate, liver and cervix, are shown in Table 13. The specific cell lines employed are as follows:
T24=bladder cell carcinoma HCT116=colon cell carcinoma A549=lung cell carcinoma MDA-MB-231=breast cell adenocarcinoma […]=pancreatic cell carcinoma PC-3=prostrate cell adenocarcinoma HepG2=hepatocellular carcinoma HeLaS3=cells isolated from a carcinoma of the cervix T-47D=breast ductal carcinoma H596=lung adenosquamous carcinoma cells Colo320=colon cell adenocarcinoma

[2] = system: T-47D breast ductal carcinoma; experiment: Relative colony forming efficiency (Example 17, Table 13); conditions: averages of 2-8 determinations
Procedure, shortened: (§1)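 Phosphorothioate antisense oligonucleotides were delivered to tumour cell cultures with 2.5 μg DOTMA/DOPE (Lipofectin) over four hours, at 0.2 μM unless otherwise indicated. Surviving colonies were stained with methylene blue and scored. Values are % inhibition of colony formation relative to lipofectin-only controls.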

[3] = system: T24 bladder cell carcinoma; experiment: as above; conditions: averages of 2-8 determinations
Procedure, shortened: as §1

[4] = system: A549 lung cell carcinoma; experiment: as above; conditions: averages of 2-8 determinations
Procedure, shortened: as §1

[5] = system: HCT116 colon cell carcinoma; experiment: as above; conditions: averages of 2-8 determinations
Procedure, shortened: as §1

[6] = system: MDA PaCa-2 pancreatic cell carcinoma; experiment: as above; conditions: MIA PaCa-2 pancreatic cell carcinoma; averages of 2-8 determinations
Procedure, shortened: as §1

[7] = system: HepG2 hepatocellular carcinoma; experiment: as above; conditions: averages of 2-8 determinations
Procedure, shortened: as §1

[8] = system: PC-3 prostrate cell adenocarcinoma; experiment: as above; conditions: averages of 2-8 determinations
Procedure, shortened: as §1

[9] = system: MDA-MB-231 breast cell adenocarcinoma; experiment: as above; conditions: averages of 2-8 determinations
Procedure, shortened: as §1

| Sequence | Reduced relative colony forming efficiency, Hela S3 (% inhibition of colony forming ability) [1] [%] | Reduced relative colony forming efficiency, T-47D (% inhibition of colony forming ability) [2] [%] | Reduced relative colony forming efficiency, T24 (% inhibition of colony forming ability) [3] [%] | Reduced relative colony forming efficiency, A549 (% inhibition of colony forming ability) [4] [%] | Reduced relative colony forming efficiency, HCT116 (% inhibition of colony forming ability) [5] [%] | Reduced relative colony forming efficiency, MIA PaCa-2 (% inhibition of colony forming ability) [6] [%] | Reduced relative colony forming efficiency, HepG2 (% inhibition of colony forming ability) [7] [%] | Reduced relative colony forming efficiency, PC-3 (% inhibition of colony forming ability) [8] [%] | Reduced relative colony forming efficiency, MDA-MB-231 (% inhibition of colony forming ability) [9] [%] |
| --- | --- | --- | --- | --- | --- | --- | --- | --- | --- |
| CCCAGTTCCAGCATAAGTCT (antisense dC*dC*dC*dA*dG*dT*dT*dC*dC*dA*dG*dC*dA*dT*dA*dA*dG*dT*dC*dT) [AS-II-1182-20] | 90.61 | 92.41 | 94.51 | 80.06 | 88.13 | 84.72 | 92.23 | 92.76 | – |
| CCTCCTCGGCGGTCCAAAAG (antisense dC*dC*dT*dC*dC*dT*dC*dG*dG*dC*dG*dG*dT*dC*dC*dA*dA*dA*dA*dG) [AS-II-494-20] | 43.62 | – | 54.23 | 33.85 | 50.28 | 25.31 | 93.37 | 30.6 | 54.78 |
| TCTGCCTTCTTCTTGACACA (antisense dT*dC*dT*dG*dC*dC*dT*dT*dC*dT*dT*dC*dT*dT*dG*dA*dC*dA*dC*dA) [AS-II-798-20] | 56.42 | – | 84.72 | 70.49 | 64.46 | 34.65 | 89.46 | 83.21 | 83.92 |
| TGTAAACCCTCATCTCTGCT (antisense dT*dG*dT*dA*dA*dA*dC*dC*dC*dT*dC*dA*dT*dC*dT*dC*dT*dG*dC*dT) [AS-II-981-20] | 69.43 | – | 86.3 | 74.25 | 66.84 | – | 95.03 | 85.16 | 91.48 |
| ACCCCTCACTCCAGCAGCCT (antisense dA*dC*dC*dC*dC*dT*dC*dA*dC*dT*dC*dC*dA*dG*dC*dA*dG*dC*dC*dT) [AS-II-110-20] | 53.98 | – | 87.78 | 89.38 | 71.69 | 47.51 | 97.14 | 92.06 | 90.92 |
| TCCTTTATCCCACAACACTC (antisense dT*dC*dC*dT*dT*dT*dA*dT*dC*dC*dC*dA*dC*dA*dA*dC*dA*dC*dT*dC) [AS-II-2067-20] | 24.88 | – | 49.6 | 64.71 | 47.16 | 41.08 | 90.36 | – | 49.68 |
| CGGCGGCGTGTTCTCCTTGT (antisense dC*dG*dG*dC*dG*dG*dC*dG*dT*dG*dT*dT*dC*dT*dC*dC*dT*dT*dG*dT) [AS-II-280-20] | 41.79 | – | 90.56 | 61.81 | 69.42 | 53.94 | 97.14 | 77.51 | 79.14 |
| TTCTCTTACTCTCTCCTCCG (antisense dT*dT*dC*dT*dC*dT*dT*dA*dC*dT*dC*dT*dC*dT*dC*dC*dT*dC*dC*dG) [AS-II-1048-20] | 39.19 | – | 40.32 | 65.67 | 42.63 | 33.4 | 77.56 | 84.38 | 66.88 |
| CTGCTTTAGTTTTCGGCTCC (antisense dC*dT*dG*dC*dT*dT*dT*dA*dG*dT*dT*dT*dT*dC*dG*dG*dC*dT*dC*dC) [AS-II-362-20] | 45.69 | – | 89.63 | 61.81 | 62.81 | 34.2 | 95.78 | 75.78 | 85.83 |
| TCAGAGGGGGCAGAGAATCC (antisense dT*dC*dA*dG*dA*dG*dG*dG*dG*dG*dC*dA*dG*dA*dG*dA*dA*dT*dC*dC) [AS-II-2044-20] | 24.55 | – | 53.63 | 25.55 | 49.34 | 24.48 | 62.35 | 74.48 | 19.11 |
| TATCTCTCCTCGGGTTTCAG (antisense dT*dA*dT*dC*dT*dC*dT*dC*dC*dT*dC*dG*dG*dG*dT*dT*dT*dC*dA*dG) [AS-II-549-20] | 27.8 | – | 45.46 | 30.57 | 47.83 | 17.01 | 84.04 | – | 40.13 |
